Measured values taken from patent US5240696A, “Treatment of periodontitis” (Chesebrough-Pond's USA Co., Division of Conopco, Inc., priority 1991, dated 1993).
Like-named read-outs stand apart in the source and are kept apart here.

Tests used:
cyclo-oxygenase = target: T1, cyclo-oxygenase (Ovis aries, UniProt P05979); assay: cyclo-oxygenase assay (oxygen consumption, Clark oxygen electrode); format: biochemical, sheep
T1 construct: microsomal enzyme fraction, obtained from a 220,000 x g precipitate of a homogenate of sheep vesicular glands; from tissue; host or cells: sheep vesicular glands (lyophilized microsomal fraction, 220,000 x g precipitate)
T1 sequence (P05979 25-600): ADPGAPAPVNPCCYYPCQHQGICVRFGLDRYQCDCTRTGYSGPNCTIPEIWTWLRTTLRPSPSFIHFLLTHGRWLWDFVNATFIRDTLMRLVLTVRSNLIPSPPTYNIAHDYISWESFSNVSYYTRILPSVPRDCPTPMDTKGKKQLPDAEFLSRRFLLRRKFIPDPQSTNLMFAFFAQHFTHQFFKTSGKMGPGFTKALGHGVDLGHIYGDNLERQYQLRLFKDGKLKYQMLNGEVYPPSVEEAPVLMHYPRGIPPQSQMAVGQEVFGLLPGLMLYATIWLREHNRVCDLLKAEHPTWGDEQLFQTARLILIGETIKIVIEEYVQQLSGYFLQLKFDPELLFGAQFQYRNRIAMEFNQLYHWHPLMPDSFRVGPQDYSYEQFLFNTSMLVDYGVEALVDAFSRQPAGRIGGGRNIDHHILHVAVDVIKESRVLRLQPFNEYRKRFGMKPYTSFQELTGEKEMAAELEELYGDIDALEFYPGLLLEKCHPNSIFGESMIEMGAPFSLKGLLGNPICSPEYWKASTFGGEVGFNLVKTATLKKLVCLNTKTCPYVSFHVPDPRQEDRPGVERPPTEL
Experimental: In vitro experiments were carried out to determine the I50 value of various cyclo-oxygenase inhibitors. […] These experiments were carried out as described in the general method given below, keeping the enzyme and substrate concentrations constant and using increasing inhibitor concentrations. Determinations at each inhibitor concentrations were carried out in duplicate.
The cyclo-oxygenase assay was carried out according to the method described by van der Ouderaa et al., "Methods in Enzymology" 86, page 60-68 (Academic Press Inc., 1982).
0.1M Tris-HCl (pH 8.0) kept at 25° C. and continuously aerated by bubbling air through the solution.
20 mg/ml in toluene kept under nitrogen at -20° C.
0.5 ml of stock solution was taken and the toluene removed under a stream of nitrogen. The substrate was suspended in 10 ml of incubation buffer, freshly prepared each day and kept at room temperature.
500 mg of dry lyophilized microsomal enzyme fraction, obtained from a 220,000 x g precipitate of a homogenate of sheep vesicular glands, was dispersed in 10 ml of incubation buffer for 5 min. using an Ultra Turrax homogeniser. The suspension was kept in ice throughout the experiment and shaken well before each sample was withdrawn.
0.23 mM in distilled water freshly prepared each day and kept on ice.
0.1 mM made up in incubation buffer, freshly prepared each day and kept on ice.
The cyclo-oxygenase activity was measured at 25° C. by monitoring the oxygen consumption as a result of cyclo-oxygenation of the substrate using a Clark oxygen electrode.
A typical experimental run was carried out as follows.
The mixture was then stirred for 5 min. to allow temperature equilibrium and to achieve a steady baseline on the chart recorder monitoring the dissolved oxygen concentration. Substrate solution (100 μl) was quickly injected into the cell to start the reaction and the oxygen consumption was typically monitored for 5 min. following addition of substrate.
The cyclo-oxygenase activity of the sample was calculated from the oxygen consumption curve assuming that maximum deflection of the recorder corresponds to 0.26 mM dissolved oxygen in the buffer and that 2 moles of oxygen are consumed per mole of substrate. The linear part of the sigmoid curve of oxygen consumption was used for initial-rate calculations.
The experiments were standardised by measuring the activity of the enzyme stock solution before and after each set of kinetic experiments and normalizing results to the mean activity.
Triclosan was dissolved in ethanol; AN-10 and APCF3-8 were dissolved in polyethyleneglycol (MW 400) and sodium salicylate was used as an aqueous solution. The concentration of the inhibitor solutions were adjusted so that only 10 μl of the inhibitor solution was added.

Neonatal mouse calvaria [1] = assay: Bone loss in vitro: calcium release from calvaria stimulated with PGE2; format: cell-based; details: Example 2
Experimental: (§1) The experimental method used is fully described in Meghi,S et al. Brit. J. Cancer (1988) 58, pp 17-21. Neonatal mouse calvaria were isolated with minimum trauma and maintained in a nutrient medium appropriate for cell culture (DMEM+15% horse serum) at […] in 100% humidity, the medium also containing the materials under test. The pH was maintained in an atmosphere of 5% CO2. After 24 h the medium was discarded, the calvaria were divided into control and test groups, and the medium was replaced with fresh medium containing the materials under test. Prostaglandin E2 (PGE2, 10^-6 M) was added with or without Triclosan as appropriate to stimulate the release of calcium ions (i.e. bone resorption) from the calvaria. After two days further culture in the test media the release of calcium into the medium from the calvaria was determined by atomic absorption spectroscopy. Calcium release is a measure of bone resorption (i.e. degradation of bone) regulated by the specialised cells (osteoblasts and osteoclasts) on the bone surface. Net calcium release was obtained by subtracting the basal medium calcium level.

[2] = Retention by gingival tissue following topical application; details: in vitro and in vivo
Neonatal mouse calvaria [3] = assay: Bone loss in vitro: calcium release from calvaria stimulated with thrombin; format: cell-based
Experimental: as §1
The test method of Example 2 was repeated, using thrombin, however, as bone loss stimulator, and using indomethacin as a cyclo-oxygenase inhibitor as control.
The procedure of Example 3 was repeated, also using zinc citrate as addition.

[4] = system: Actinobacillus actinomycetemcomitans; assay: MIC-value of Triclosan for periodontal micro organisms; format: cell-based
[5] = sheep vesicular gland microsomal enzyme, 8,11,14-eicosatrienoic acid substrate, 25° C., pH 8.0, read-out: I50 (concentration of inhibitor which gives 50% inhibition of cyclo-oxygenase activity)

## CCCCCCCCCC(=O)c1ccc(O)c(C(=O)Nc2ccc([N+](=O)[O-])cc2)c1 [AN-10, 5-n-decanoyl-4'nitrosalicylanilide]
cyclo-oxygenase; [5]
  IC50: 180 µM

## CCCCCCCC(=O)c1ccc(O)c(C(=O)Nc2cccc(C(F)(F)F)c2)c1 [APCF3-8, 5-n-octanoyl-'trifluoromethylphenyl-salicylanilide]
cyclo-oxygenase; [5]
  IC50: 240 µM

## CCCCC[C@H](O)/C=C/[C@H]1[C@H](O)CC(=O)[C@@H]1C/C=C\CCCC(=O)O [PGE2, Prostaglandin E2]
Neonatal mouse calvaria [1]; PGE2 10^-6 M alone (positive control), two days culture
  Net Calcium Release: 3.5 mg/dL

## Oc1cc(Cl)ccc1Oc1ccc(Cl)cc1Cl [Triclosan, 2',4,4'-trichloro-2-hydroxy-diphenyl-ether]
Neonatal mouse calvaria [1]; + PGE2 (10^-6 M) and 1.10^-5 Triclosan
  Net Calcium Release: 1.4 mg/dL
Neonatal mouse calvaria [1]; + PGE2 (10^-6 M) and 2.5.10^-5 M Triclosan
  Net Calcium Release: -0.1 mg/dL
[2]
  retention by gingival tissue: retained by gingival tissue both in vitro and in vivo
Neonatal mouse calvaria [3]; Example 3, + thrombin and 1.10^-5 M Triclosan
  Net Calcium Release: 0.2 mg/dL
Neonatal mouse calvaria [3]; Example 3, + thrombin and 5.10^-5 M Triclosan
  Net Calcium Release: -0.6 mg/dL
Neonatal mouse calvaria [3]; Example 4, + thrombin and 5.10^-6 M Triclosan
  Net Calcium Release: 0.75 mg/dL
[4]
  MIC-value: 0.0005%
cyclo-oxygenase
  IC50: 155 µM
cyclo-oxygenase; in words
  anti-cyclo-oxygenase activity: considerable anti-cyclo-oxygenase activity
cyclo-oxygenase; in words, salicylamides of U.S. Pat. No. 4,742,083
  anti-inflammatory potency compared with the preferred substituted salicylamides: much more potent anti-inflammatory agent than the preferred substituted salicylamides

## COc1ccc2c(c1)c(CC(=O)O)c(C)n2C(=O)c1ccc(Cl)cc1 [indomethacin]
Neonatal mouse calvaria [3]; Example 3, + thrombin and 10^-6 M indomethacin
  Net Calcium Release: 0.4 mg/dL
Neonatal mouse calvaria [3]; Example 4, + thrombin and 10^-6 M indomethacin
  Net Calcium Release: 0.0 mg/dL

## O=C([O-])CC(O)(CC(=O)[O-])C(=O)[O-].O=C([O-])CC(O)(CC(=O)[O-])C(=O)[O-].[Zn+2].[Zn+2].[Zn+2] [zinc citrate]
Neonatal mouse calvaria [3]; Example 4, + thrombin and 1.10^-4 M zinc citrate
  Net Calcium Release: 1.3 mg/dL
Neonatal mouse calvaria [3]; Example 4, + thrombin and 2.10^-4 M zinc citrate
  Net Calcium Release: 0.8 mg/dL
Neonatal mouse calvaria [3]; Example 4, + thrombin and 5.10^-5 M zinc citrate
  Net Calcium Release: 1.4 mg/dL

## thrombin
Neonatal mouse calvaria [3]; Example 3, + thrombin alone
  Net Calcium Release: 3.9 mg/dL
Neonatal mouse calvaria [3]; Example 4, thrombin alone
  Net Calcium Release: 2.4 mg/dL
